Results taken from paper PMC2966039 (Journal of Medicinal Chemistry, 2009).

Columns and labels:
LmPTR1 = conditions: cited from earlier work
TbPTR1 = target: T1, TbPTR1 (Trypanosoma brucei brucei, UniProt O76290); assay: TbPTR1 activity assay; type: biochemical; conditions: for Hill slope: averaged over at least two independent measurements; for ligand efficiency: from Ki^app
T1 sequence (O76290 1-268): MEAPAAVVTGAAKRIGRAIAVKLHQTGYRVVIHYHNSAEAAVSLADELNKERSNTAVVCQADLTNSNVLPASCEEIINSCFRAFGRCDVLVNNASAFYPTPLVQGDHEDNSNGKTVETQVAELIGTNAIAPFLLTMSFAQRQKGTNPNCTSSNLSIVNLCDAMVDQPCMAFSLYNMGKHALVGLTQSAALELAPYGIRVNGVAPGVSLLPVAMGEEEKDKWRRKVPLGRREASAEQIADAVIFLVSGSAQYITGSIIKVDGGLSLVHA

SMILES	Hill slope (TbPTR1)	ligand efficiency (TbPTR1) [kcal mol^−1/heavy atom]	also measured
Cc1cnc2nc(N)nc(N)c2n1 [6-methylpteridine-2,4-diamine]	–	–	inhibition constants (LmPTR1): low micromolar range
COC(=O)c1ccc2nc(N)sc2c1 [Compound 2]	0.6	0.46	–
Nc1nc2ccc(C(=O)N3CCCCC3)cc2s1 [Compound 3]	0.6	0.29	–
Nc1nc2ccc(Cl)cc2[nH]1 [Compound 4, 2-Amino-6-chloro-benzimidazole]	0.9	0.62	–
Nc1nc2ccccc2[nH]1 [Compound 5, 2-amino-benzimidazole]	0.9	–	drop in affinity (TbPTR1; compared to 4): more than 20 fold
CCCOc1cccc2nc(N)n(Cc3ccc(Cl)c(Cl)c3)c12 [Compound 11, 7-(n-Propyloxy)-1-(3,4-dichlorobenzyl)-1H-benzo[d]imidazol-2-amine]	–	–	increase in potency (TbPTR1; compared to the 7-chloro derivative 10): 10 fold

Further lines, with some results ahead:

Hill slope (TbPTR1)	ligand efficiency (TbPTR1) [kcal mol^−1/heavy atom]	SMILES	also measured
1.1	–	Cc1cccc(-c2ccc3nc(N)[nH]c3c2)c1 [Compound 6]	–
0.7	–	Nc1nc2ccccc2n1Cc1ccc(Cl)c(Cl)c1 [Compound 9, 1-(3,4-dichloro-benzyl)-2-amino-benzimidazole]	increase in affinity (TbPTR1; compared to the virtual screening hit (4)): more than 20 fold
1.0	–	Nc1nc2cccc(Cl)c2n1Cc1ccc(Cl)c(Cl)c1 [Compound 10, 7-Chloro-1-(3,4-dichlorobenzyl)-1H-benzo[d]imidazol-2-amine]	–
0.7	–	Nc1nc2cccc(-c3ccccc3)c2n1Cc1ccc(Cl)c(Cl)c1 [Compound 12, 7-Phenyl-1-(3,4-dichlorobenzyl)-1H-benzo[d]imidazol-2-amine]	–
